Assay results as given in patent publication US9783537B2, “3-(4-ethylnylphenyl) pyridopyrimidinone compounds and process for preparation thereof useful as potential anticancer agents” (Council of Scientific & Industrial Research, priority 2013, dated 2017).
Like-named read-outs stand apart in the source and are kept apart here.

Tests used:
CCRF-CEM = test: SRB 48 h growth assay, Leukemia CCRF-CEM; type: cell-based, human; details: for CC50 / GI50: Homo sapiens; for CC50: CCKF-CEM, read-out: Log10 LC50 (converted)
HOP-62 = test: SRB 48 h growth assay, Non-small Cell Lung HOP-62; type: cell-based, human; details: HOP-62, Non-small Cell Lung
HOP-92 = test: SRB 48 h growth assay, Non-small Cell Lung HOP-92; type: cell-based, human; details: Homo sapiens, HOP-92, Non-small Cell Lung
NCI-H23 = test: SRB 48 h growth assay, Non-small Cell Lung NCI-H23; type: cell-based, human; details: for GI50 / LC50: Homo sapiens; for LC50: read-out: Log10 LC50 (converted)
NCI-H522 = test: SRB 48 h growth assay, Non-small Cell Lung NCI-H522; type: cell-based, human
HCT-116 = test: SRB 48 h growth assay, Colon HCT-116; type: cell-based, human; details: HCT-116, Colon
KM12 = test: SRB 48 h growth assay, Colon KM12; type: cell-based, human
LOX IMVI = test: SRB 48 h growth assay, Melanoma LOX IMVI; type: cell-based, human
MDA-MB-435 = test: SRB 48 h growth assay, Melanoma MDA-MB-435; type: cell-based, human; details: MDA-MB-435, Melanoma; for GI50 / CC50: Homo sapiens; for CC50: read-out: Log10 LC50 (converted)
SK-MEL-5 = test: SRB 48 h growth assay, Melanoma SK-MEL-5; type: cell-based, human; details: SK-MEL-5, Melanoma
UACC-257 = test: SRB 48 h growth assay, Melanoma UACC-257; type: cell-based, human; details: UACC-257, Melanoma
OVCAR-3 = test: SRB 48 h growth assay, Ovarian OVCAR-3; type: cell-based, human; details: OVCAR-3, Ovarian
NCI/ADR-RES = test: SRB 48 h growth assay, Ovarian NCI/ADR-RES; type: cell-based, human; details: for GI50 / CC50: Homo sapiens; for CC50: read-out: Log10 LC50 (converted)
SK-OV-3 = test: SRB 48 h growth assay, Ovarian SK-OV-3; type: cell-based, human; details: SK-OV-3, Ovarian; for GI50 / CC50: Homo sapiens; for CC50: read-out: Log10 LC50 (converted)
786-0 = test: SRB 48 h growth assay, Renal 786-0; type: cell-based, human; details: 786-0, Renal
ACHN = test: SRB 48 h growth assay, Renal ACHN; type: cell-based, human
TK-10 = test: SRB 48 h growth assay, Renal TK-10; type: cell-based, human; details: TK-10, Renal; for GI50 / CC50: Homo sapiens; for CC50: read-out: Log10 LC50 (converted)
PC-3 = test: SRB 48 h growth assay, Prostate PC-3; type: cell-based, human; details: PC-3, Prostate; for GI50 / CC50: Homo sapiens; for CC50: read-out: Log10 LC50 (converted)
MCF7 = test: SRB 48 h growth assay, Breast MCF7; type: cell-based, human; details: for GI50 / CC50: Homo sapiens; for CC50: read-out: Log10 LC50 (converted)
HS578T = test: SRB 48 h growth assay, Breast HS578T; type: cell-based, human; details: for GI50 / CC50: Homo sapiens, Hs-578T; for CC50: read-out: Log10 LC50 (converted)
BT-549 = test: SRB 48 h growth assay, Breast BT-549; type: cell-based, human; details: BT-549, Breast
[1] = tested on: six leukemia cancer cell lines (CCRF-CEM, HL-60, K-562, MOLT-4, SR and RPMI-8226); test: in vitro anticancer activity, leukemia panel; type: cell-based; details: Homo sapiens, exposure at least 48 h, read-out: GI50, range over panel
[2] = in vitro anticancer activity, non-small cell lung panel; type: cell-based; details: Homo sapiens; nine non-small cell lung cancer cell lines, exposure at least 48 h; read-out: GI50, range over panel
[3] = tested on: seven colon cancer cell line (COLO 205, HCC-2998, HCT-116, HCT-15, HT29, KM12 and SW-620); test: in vitro anticancer activity, colon panel; type: cell-based; details: Homo sapiens; seven colon cancer cell lines, exposure at least 48 h; read-out: GI50, range over panel
[4] = in vitro anticancer activity, melanoma panel; type: cell-based; details: Homo sapiens; nine melanoma cell lines, exposure at least 48 h; read-out: GI50, range over panel
[5] = tested on: seven ovarian cancer cell lines (IGROV1, OVCAR-3, OVCAR-4, OVCAR-5, OVCAR-8, NCI/ADR-RES and SK-OV-3); test: in vitro anticancer activity, ovarian panel; type: cell-based; details: Homo sapiens, exposure at least 48 h, read-out: GI50, range over panel
[6] = tested on: six breast cancer cell line (MCF-7, MDA-MB-231/ATCC, HS 578T, TD-47D, MDA-MB-468 and BT-549); test: in vitro anticancer activity, breast panel; type: cell-based; details: Homo sapiens; six breast cancer cell lines, exposure at least 48 h; read-out: GI50, range over panel
[7] = read-out: Growth Inhibition GI50
[8] = read-out: Log10 GI50 (converted)
[9] = Homo sapiens, read-out: Growth Inhibition GI50
[10] = Homo sapiens, read-out: Log10 GI50 (converted)
[11] = Homo sapiens, read-out: Log10 LC50 (converted)

C#Cc1ccc(-n2c(/C=C/c3ccc(C(F)(F)F)cc3)nc3ncccc3c2=O)cc1 [4c, (E)-3-(4-Ethynylphenyl)-2-(4-(trifluoromethyl)styryl)pyrido[2,3-d]pyrimidin-4(3H)-one]
Log10 TGI50 (CCRF-CEM): >−4.00
CC50 (CCRF-CEM): > 100 µM
GI50 (CCRF-CEM; [7]): 1950 nM
GI50 (CCRF-CEM; [8]): 1950 nM
Log10 TGI50 (HOP-62): −5.29
GI50 (HOP-62; [9]): 2430 nM
GI50 (HOP-62; [10]): 2450 nM
CC50 (HOP-62; [11]): > 100 µM
GI50 (HOP-92; [7]): 1320 nM
GI50 (HOP-92; [8]): 1320 nM
CC50 (HOP-92; read-out: Log10 LC50 (converted)): 8.91 µM
Log10 TGI50 (NCI-H23): −4.72
GI50 (NCI-H23; [7]): 3.9 µM
GI50 (NCI-H23; [8]): 3.89 µM
LC50 (NCI-H23): > 100 µM
Log10 TGI50 (NCI-H522): −5.51
GI50 (NCI-H522; [9]): 1650 nM
GI50 (NCI-H522; [10]): 1660 nM
CC50 (NCI-H522; [11]): 5.75 µM
Log10 TGI50 (HCT-116): −5.52
GI50 (HCT-116; [9]): 1640 nM
GI50 (HCT-116; [10]): 1620 nM
CC50 (HCT-116; [11]): 5.62 µM
Log10 TGI50 (KM12): −5.46
GI50 (KM12; [9]): 1790 nM
GI50 (KM12; [10]): 1780 nM
CC50 (KM12; [11]): 6.61 µM
Log10 TGI50 (LOX IMVI): −5.37
GI50 (LOX IMVI; [9]): 1890 nM
GI50 (LOX IMVI; [10]): 1910 nM
CC50 (LOX IMVI; [11]): 9.77 µM
GI50 (MDA-MB-435; [7]): 2270 nM
GI50 (MDA-MB-435; [8]): 2290 nM
CC50 (MDA-MB-435): > 100 µM
Log10 TGI50 (MDA-MB-435): −5.19
GI50 (SK-MEL-5; [9]): 1490 nM
GI50 (SK-MEL-5; [10]): 1480 nM
CC50 (SK-MEL-5; [11]): 5.5 µM
Log10 TGI50 (SK-MEL-5): −5.54
GI50 (UACC-257; [9]): 1560 nM
GI50 (UACC-257; [10]): 1550 nM
CC50 (UACC-257; [11]): 5.62 µM
Log10 TGI50 (UACC-257): −5.53
GI50 (OVCAR-3; [9]): 1670 nM
GI50 (OVCAR-3; [10]): 1660 nM
CC50 (OVCAR-3; [11]): 6.03 µM
Log10 TGI50 (OVCAR-3): −5.50
Log10 TGI50 (NCI/ADR-RES): −5.16
GI50 (NCI/ADR-RES; [7]): 2500 nM
GI50 (NCI/ADR-RES; [8]): 2510 nM
CC50 (NCI/ADR-RES): > 100 µM
GI50 (SK-OV-3; [7]): 3610 nM
GI50 (SK-OV-3; [8]): 3630 nM
CC50 (SK-OV-3): 53.7 µM
Log10 TGI50 (SK-OV-3): −4.87
Log10 TGI50 (786-0): −5.43
GI50 (786-0; [9]): 2060 nM
GI50 (786-0; [10]): 2040 nM
CC50 (786-0; [11]): 6.61 µM
Log10 TGI50 (ACHN): −5.49
GI50 (ACHN; [9]): 1710 nM
GI50 (ACHN; [10]): 1700 nM
CC50 (ACHN; [11]): 6.17 µM
GI50 (TK-10; [7]): 2190 nM
GI50 (TK-10; [8]): 2190 nM
CC50 (TK-10): 6.31 µM
Log10 TGI50 (TK-10): −5.43
GI50 (PC-3; [7]): 1960 nM
GI50 (PC-3; [8]): 1950 nM
CC50 (PC-3): > 100 µM
Log10 TGI50 (PC-3): −5.20
Log10 TGI50 (MCF7): −4.99
GI50 (MCF7; [7]): 2490 nM
GI50 (MCF7; [8]): 2510 nM
CC50 (MCF7): > 100 µM
Log10 TGI50 (HS578T): >−4.00
GI50 (HS578T; [7]): 3460 nM
GI50 (HS578T; [8]): 3470 nM
CC50 (HS578T): > 100 µM
Log10 TGI50 (BT-549): −5.47
GI50 (BT-549; [9]): 1710 nM
GI50 (BT-549; [10]): 1700 nM
CC50 (BT-549; [11]): 6.61 µM
GI50 [1]: 450 to 2430 nM
GI50 [2]: 1630 to 7450 nM
GI50 [3]: 2060 to 3260 nM
GI50 [4]: 510 to 4970 nM
GI50 [5]: 1950 to 7550 nM
GI50 [6]: 960 to 7620 nM

C#Cc1ccc(-n2c(/C=C/c3ccc(Cl)c(F)c3)nc3ncccc3c2=O)cc1 [4g, (E)-2-(4-chloro-3-fluorostyryl)-3-(4-ethynylphenyl)pyrido[2,3-d]pyrimidin-4(3H)-one]
CC50 (CCRF-CEM): > 100 µM
GI50 (CCRF-CEM; [7]): 290 nM
GI50 (CCRF-CEM; [8]): 288 nM
GI50 (HOP-62; [9]): 580 nM
GI50 (HOP-62; [10]): 589 nM
GI50 (HOP-92; [7]): 200 nM
GI50 (HOP-92; [8]): 204 nM
LC50 (NCI-H23): > 100 µM
GI50 (NCI-H522; [9]): 270 nM
GI50 (NCI-H522; [10]): 275 nM
GI50 (HCT-116; [9]): 330 nM
GI50 (HCT-116; [10]): 331 nM
GI50 (KM12; [9]): 340 nM
GI50 (KM12; [10]): 347 nM
GI50 (LOX IMVI; [9]): 260 nM
GI50 (LOX IMVI; [10]): 263 nM
GI50 (MDA-MB-435; [7]): 190 nM
GI50 (MDA-MB-435; [8]): 195 nM
CC50 (MDA-MB-435): > 100 µM
GI50 (SK-MEL-5; [9]): 220 nM
GI50 (SK-MEL-5; [10]): 229 nM
GI50 (UACC-257; [9]): 540 nM
GI50 (UACC-257; [10]): 537 nM
GI50 (OVCAR-3; [9]): 300 nM
GI50 (OVCAR-3; [10]): 302 nM
GI50 (NCI/ADR-RES; [7]): 410 nM
GI50 (NCI/ADR-RES; [8]): 417 nM
CC50 (NCI/ADR-RES): > 100 µM
GI50 (SK-OV-3; [7]): 340 nM
GI50 (SK-OV-3; [8]): 347 nM
CC50 (SK-OV-3): > 100 µM
GI50 (786-0; [9]): 360 nM
GI50 (786-0; [10]): 372 nM
GI50 (ACHN; [9]): 390 nM
GI50 (ACHN; [10]): 398 nM
CC50 (TK-10): > 100 µM
GI50 (PC-3; [7]): 340 nM
GI50 (PC-3; [8]): 347 nM
CC50 (PC-3): > 100 µM
GI50 (MCF7; [7]): 320 nM
GI50 (MCF7; [8]): 324 nM
CC50 (MCF7): > 100 µM
Log10 TGI50 (HS578T): >−4.00
GI50 (HS578T; [7]): 410 nM
GI50 (HS578T; [8]): 417 nM
CC50 (HS578T): > 100 µM
GI50 (BT-549; [9]): 320 nM
GI50 (BT-549; [10]): 324 nM
GI50 [1]: 250 to 540 nM
GI50 [2]: 200 to 580 nM
GI50 [3]: 330 to 370 nM
GI50 [4]: 190 to 540 nM
GI50 [5]: 300 to 480 nM
GI50 [6]: 240 to 410 nM
